US20060069132A1, “Azolecarboxamide herbicides” (priority 2004, published 2006)
Like-named read-outs stand apart in the source and are kept apart here.

Tests used:
barnyardgrass = experiment: Test B pre-/postemergence herbicide test; format: in vivo, Echinochloa crus-galli; conditions: Echinochloa crus-galli; for pest or weed control at 125 g/ha: 125 g ai/ha; for pest or weed control at 500 g/ha: 500 g ai/ha
Outline: (§1)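 Test chemicals in a non-phytotoxic solvent mixture with surfactant were applied preemergence to seeded species and postemergence to plants 2-18 cm tall (1- to 4-leaf stage); rice and barnyardgrass were also tested in a flooded paddy at the 2-leaf stage. Visual rating versus controls after 13-15 days in greenhouse, scale 0 (no effect) to 100 (complete control).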

Surinam grass = experiment: Test B pre-/postemergence herbicide test; format: in vivo, Urochloa decumbens; conditions: Urochloa decumbens; for pest or weed control at 125 g/ha: 125 g ai/ha; for pest or weed control at 500 g/ha: 500 g ai/ha
Outline: as §1

cocklebur = experiment: Test B pre-/postemergence herbicide test; format: in vivo, Xanthium strumarium; conditions: Xanthium strumarium; for pest or weed control at 125 g/ha: 125 g ai/ha; for pest or weed control at 500 g/ha: 500 g ai/ha
Outline: as §1

corn = experiment: Test B pre-/postemergence herbicide test; format: in vivo, Zea mays; conditions: Zea mays
Outline: as §1

large crabgrass = experiment: Test B pre-/postemergence herbicide test; format: in vivo, Digitaria sanguinalis; conditions: Digitaria sanguinalis; for pest or weed control at 125 g/ha: 125 g ai/ha; for pest or weed control at 500 g/ha: 500 g ai/ha
Outline: as §1

giant foxtail = experiment: Test B pre-/postemergence herbicide test; format: in vivo, Setaria faberi; conditions: Setaria faberi, 336 h; for pest or weed control at 125 g/ha: 125 g ai/ha; for pest or weed control at 500 g/ha: 500 g ai/ha
Outline: as §1

morningglory = experiment: Test B pre-/postemergence herbicide test; format: in vivo, Ipomoea coccinea; conditions: Ipomoea, 336 h; for pest or weed control at 125 g/ha: 125 g ai/ha; for pest or weed control at 500 g/ha: 500 g ai/ha
Outline: as §1

pigweed = experiment: Test B pre-/postemergence herbicide test; format: in vivo, Amaranthus retroflexus; conditions: Amaranthus retroflexus, 336 h; for pest or weed control at 125 g/ha: 125 g ai/ha; for pest or weed control at 500 g/ha: 500 g ai/ha
Outline: as §1

velvetleaf = experiment: Test B pre-/postemergence herbicide test; format: in vivo, Abutilon theophrasti; conditions: Abutilon theophrasti, 336 h; for pest or weed control at 125 g/ha: 125 g ai/ha; for pest or weed control at 500 g/ha: 500 g ai/ha
Outline: as §1

blackgrass = experiment: Test B postemergence herbicide test; format: in vivo, Alopecurus myosuroides; conditions: Alopecurus myosuroides, post-emergence, 336 h, postemergence, visual rating, scale 0 (no effect) to 100 (complete control), read-out: Blackgrass plant response rating
Outline: (§2)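 Paddy species grown to the 2-leaf stage under flooding; blackgrass sprayed postemergence at 2–18 cm (1- to 4-leaf stage). Plants kept in a greenhouse for 13 to 15 days, then visually rated against controls on 0 (no effect) to 100 (complete control).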

wheat = experiment: Test B postemergence herbicide test; format: in vivo, Triticum aestivum; conditions: Triticum aestivum, post-emergence, 336 h, postemergence, 500 g ai/ha; visual rating, scale 0 (no effect) to 100 (complete control); read-out: Wheat plant response rating
Outline: (§3)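 Postemergence plants were sprayed with formulated test chemicals at 2 to 18 cm height (1- to 4-leaf stage); paddy species were grown to the 2-leaf stage. After 13 to 15 days in a greenhouse, injury was rated visually against untreated controls on a 0–100 scale (0 = no effect, 100 = complete control).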

wild oat = experiment: Test B postemergence herbicide test; format: in vivo, Avena fatua; conditions: Avena fatua, post-emergence, 336 h, postemergence, visual rating, scale 0 (no effect) to 100 (complete control), read-out: Oat, Wild plant response rating
Outline: as §3

rice = experiment: Test B flooded paddy test; format: in vivo, Oryza sativa; conditions: Oryza sativa, 336 h, 1000 g ai/ha, visual rating, scale 0 to 100 (0 no effect, 100 complete control), 13 to 15 days, read-out: Rice plant response rating
Outline: as §2

[1] = test system: small flower umbrella sedge; experiment: Test B flooded paddy test; format: in vivo, Cyperus difformis; conditions: Cyperus difformis, 336 h, 1000 g ai/ha, visual rating, scale 0 to 100 (0 no effect, 100 complete control), 13 to 15 days, read-out: Sedge, Umbrella plant response rating
Outline: as §2

ducksalad = experiment: Test B flooded paddy test; format: in vivo, Heteranthera limosa; conditions: Heteranthera limosa, 336 h, 1000 g ai/ha, visual rating, scale 0 to 100 (0 no effect, 100 complete control), 13 to 15 days, read-out: Ducksalad plant response rating
Outline: as §2

[2] = post-emergence, postemergence, visual rating, scale 0 (no effect) to 100 (complete control), read-out: Barnyardgrass plant response rating
[3] = post-emergence, postemergence, visual rating, scale 0 (no effect) to 100 (complete control), read-out: Surinam Grass plant response rating
[4] = post-emergence, postemergence, visual rating, scale 0 (no effect) to 100 (complete control), read-out: Cocklebur plant response rating
[5] = post-emergence, postemergence, visual rating, scale 0 (no effect) to 100 (complete control), read-out: Crabgrass, Large plant response rating
[6] = post-emergence, postemergence, visual rating, scale 0 (no effect) to 100 (complete control), read-out: Foxtail, Giant plant response rating
[7] = post-emergence, postemergence, visual rating, scale 0 (no effect) to 100 (complete control), read-out: Morningglory plant response rating
[8] = post-emergence, postemergence, visual rating, scale 0 (no effect) to 100 (complete control), read-out: Pigweed plant response rating
[9] = post-emergence, postemergence, visual rating, scale 0 (no effect) to 100 (complete control), read-out: Velvetleaf plant response rating

Q: With `CCn1nc(C(C)(C)C)cc1C(=O)Nc1cc(C(=O)N(C)C)ccn1` [Compound 156, 2-[[[3-(1,1-dimethylethyl)-1-ethyl-1H-pyrazol-5-yl]carbonyl]amino]-N,N-dimethyl-4-pyridinecarboxamide] as the molecule, how does the pest or weed control at 125 g/ha (barnyardgrass; [2]) read?
A: 10%

Q: What about the pest or weed control at 500 g/ha (barnyardgrass; [2]) of the same molecule?
A: 40%

Q: What about the pest or weed control at 500 g/ha (barnyardgrass; pre-emergence, visual rating 0-100, 0 no effect, 100 complete control, read-out: Plant response rating, Barnyardgrass) of the same molecule?
A: 100%

Q: And the pest or weed control at 125 g/ha (barnyardgrass; pre-emergence, preemergence, 0 to 100 scale, 0 is no effect, 100 is complete control, read-out: Plant response rating, Barnyardgrass)?
A: 100%

Q: What about the pest or weed control at 125 g/ha (Surinam grass; [3]) of the same molecule?
A: 10%

Q: And the pest or weed control at 500 g/ha (Surinam grass; [3])?
A: 20%

Q: What about the pest or weed control at 500 g/ha (Surinam grass; pre-emergence, visual rating 0-100, 0 no effect, 100 complete control, read-out: Plant response rating, Surinam Grass) of the same molecule?
A: 100%

Q: What about the pest or weed control at 125 g/ha (Surinam grass; pre-emergence, preemergence, 0 to 100 scale, 0 is no effect, 100 is complete control, read-out: Plant response rating, Surinam Grass) of the same molecule?
A: 90%

Q: What about the pest or weed control at 125 g/ha (cocklebur; [4]) of the same molecule?
A: 40%

Q: What about the pest or weed control at 500 g/ha (cocklebur; [4]) of the same molecule?
A: 80%

Q: What about the pest or weed control at 500 g/ha (cocklebur; pre-emergence, visual rating 0-100, 0 no effect, 100 complete control, read-out: Plant response rating, Cocklebur) of the same molecule?
A: 100%

Q: What about the pest or weed control at 125 g/ha (cocklebur; pre-emergence, preemergence, 0 to 100 scale, 0 is no effect, 100 is complete control, read-out: Plant response rating, Cocklebur) of the same molecule?
A: 100%

Q: What about the plant injury at 125 g/ha (corn; post-emergence, postemergence, 125 g ai/ha, visual rating, scale 0 (no effect) to 100 (complete control), read-out: Corn plant response rating) of the same molecule?
A: 0%

Q: What about the plant injury at 500 g/ha (corn; post-emergence, postemergence, 500 g ai/ha, visual rating, scale 0 (no effect) to 100 (complete control), read-out: Corn plant response rating) of the same molecule?
A: 10%

Q: And the Corn plant response rating (crop injury, 0 = no effect, 100 = complete kill) at 500 g/ha (corn; pre-emergence, 500 g ai/ha, visual rating 0-100, 0 no effect, 100 complete control)?
A: 80%

Q: What about the Corn plant response rating (crop injury, 0 = no effect, 100 = complete kill) at 125 g/ha (corn; pre-emergence, preemergence, 125 g ai/ha, 0 to 100 scale, 0 is no effect, 100 is complete control) of the same molecule?
A: 40%

Q: What about the pest or weed control at 125 g/ha (large crabgrass; [5]) of the same molecule?
A: 10%

Q: What about the pest or weed control at 500 g/ha (large crabgrass; [5]) of the same molecule?
A: 10%

Q: And the pest or weed control at 500 g/ha (large crabgrass; pre-emergence, visual rating 0-100, 0 no effect, 100 complete control, read-out: Plant response rating, Crabgrass, Large)?
A: 100%

Q: And the pest or weed control at 125 g/ha (large crabgrass; pre-emergence, preemergence, 0 to 100 scale, 0 is no effect, 100 is complete control, read-out: Plant response rating, Crabgrass, Large)?
A: 90%

Q: What about the pest or weed control at 125 g/ha (giant foxtail; [6]) of the same molecule?
A: 20%

Q: What about the pest or weed control at 500 g/ha (giant foxtail; [6]) of the same molecule?
A: 40%

Q: And the pest or weed control at 500 g/ha (giant foxtail; pre-emergence, visual rating 0-100, 0 no effect, 100 complete control, read-out: Plant response rating, Foxtail, Giant)?
A: 100%

Q: And the pest or weed control at 125 g/ha (giant foxtail; pre-emergence, preemergence, 0 to 100 scale, 0 is no effect, 100 is complete control, read-out: Plant response rating, Foxtail, Giant)?
A: 100%

Q: What about the pest or weed control at 125 g/ha (morningglory; [7]) of the same molecule?
A: 20%

Q: What about the pest or weed control at 500 g/ha (morningglory; [7]) of the same molecule?
A: 50%

Q: And the pest or weed control at 500 g/ha (morningglory; pre-emergence, visual rating 0-100, 0 no effect, 100 complete control, read-out: Plant response rating, Morningglory)?
A: 100%

Q: What about the pest or weed control at 125 g/ha (morningglory; pre-emergence, preemergence, 0 to 100 scale, 0 is no effect, 100 is complete control, read-out: Plant response rating, Morningglory) of the same molecule?
A: 60%

Q: And the pest or weed control at 125 g/ha (pigweed; [8])?
A: 30%

Q: What about the pest or weed control at 500 g/ha (pigweed; [8]) of the same molecule?
A: 60%

Q: What about the pest or weed control at 500 g/ha (pigweed; pre-emergence, visual rating 0-100, 0 no effect, 100 complete control, read-out: Plant response rating, Pigweed) of the same molecule?
A: 100%

Q: What about the pest or weed control at 125 g/ha (pigweed; pre-emergence, preemergence, 0 to 100 scale, 0 is no effect, 100 is complete control, read-out: Plant response rating, Pigweed) of the same molecule?
A: 100%

Q: What about the pest or weed control at 125 g/ha (velvetleaf; [9]) of the same molecule?
A: 60%

Q: What about the pest or weed control at 500 g/ha (velvetleaf; [9]) of the same molecule?
A: 90%

Q: What about the pest or weed control at 500 g/ha (velvetleaf; pre-emergence, visual rating 0-100, 0 no effect, 100 complete control, read-out: Plant response rating, Velvetleaf) of the same molecule?
A: 100%

Q: What about the pest or weed control at 125 g/ha (velvetleaf; pre-emergence, preemergence, 0 to 100 scale, 0 is no effect, 100 is complete control, read-out: Plant response rating, Velvetleaf) of the same molecule?
A: 100%

Q: And the pest or weed control at 125 g/ha (blackgrass; 125 g ai/ha)?
A: 30%

Q: What about the pest or weed control at 500 g/ha (blackgrass; 500 g ai/ha) of the same molecule?
A: 60%

Q: What about the plant injury at 500 g/ha (wheat) of the same molecule?
A: 20%

Q: And the pest or weed control at 125 g/ha (wild oat; 125 g ai/ha)?
A: 40%

Q: What about the pest or weed control at 500 g/ha (wild oat; 500 g ai/ha) of the same molecule?
A: 40%

Q: What about the plant injury at 1000 g/ha (rice) of the same molecule?
A: 90%

Q: And the pest or weed control at 1000 g/ha [1]?
A: 90%

Q: And the pest or weed control at 1000 g/ha (ducksalad)?
A: 100%
